This note sets out measurements from patent US20250304610A1, “TREHALOSE-BASED SURFACTANTS” (priority 2022, published 2025).

Data set [1] concerns antibody. Kind of data set: Antibody aggregation assessed by DLS after freeze-drying and storage. In kind it is physicochemical. To be noted: antibody 1 mg/mL, reconstituted with MilliQ water. As for the experimental part:
500 uL of 1 mg/mL antibody formulations were placed in a vial prior to deep-freeze in liquid nitrogen. The frozen samples were placed directly in the freeze-dryer. After 24 hr, the lyophilized samples were stored in a fridge at 4° C. for 7 or 28 days. The sample were then reconstituted with addition of MilliQ® water before assessing their stability by DLS and cell binding assays.
The aggregation of antibody was assessed by dynamic light scattering (DLS) operating at 25° C. The measurements were done at different timepoints during storage at […] and right after nebulization.
The mean hydrodynamic diameter by intensities of the monomer was distributed at d=10 nm while aggregates was distributed at a d >10 nm.
The addition of 5.6 mM C16Tre1S and C8Tre1S trehalose surfactants as cryoprotectant was assessed on 1 mg/mL antibody formulations. The samples were first deep-frozen in liquid nitrogen before drying for 24 hr. The lyophilized samples were stored in a fridge for 0, 7 or 28 days before reconstitution with addition of MilliQ® water. The conformation and functionality of antibody after the process were assessed by DLS and cell binding assays respectively. The results were compared to antibody formulated in PBS only and formulated with standard cryoprotectants such as trehalose (5 wt % and 5.6 mM) and Tween 80 (5.6 mM).

The test system of data set [2] is SARS-CoV-2 spike-expressing HEK293 cells. It is filed as cell-based.

As to `OC[C@H]1O[C@H](O[C@H]2O[C@H](CO)[C@@H](O)[C@H](O)[C@H]2O)[C@H](O)[C@@H](O)[C@@H]1O` [Trehalose], the “antibody aggregation after freeze-drying (DLS)” value is “aggregations were observed” in data set [1] (excipient 5.6 mM) and “Comparable results” in data set [1] (excipient 5 wt %). Moreover, in data set [2], the “antibody binding to spike-expressing HEK293 cells after lyophilization (fluorescence signal)” value is recorded as “significant decrease of antibody binding”.

`CCCCCCCC/C=C\CCCCCCCC(=O)OCCOCC(OCCO)C1OCC(OCCO)C1OCCO` (stereo not drawn) [Tween 80]: the “antibody aggregation after freeze-drying (DLS)” value in data set [1] (excipient 5.6 mM) was “Comparable results”. In addition, in data set [2], the “antibody binding to Spike protein after nebulization of the reconstituted formulation” value is “at the same level as before nebulization” and the “antibody binding to spike-expressing HEK293 cells after lyophilization (fluorescence signal)” value is given as “Comparable results”.
